Assay results reported in patent US10882826B2, “Quinolinone or quinazolinone comprising antibiofilm compositions, compounds and methods and uses relating thereto” (University College Cork—National University of Ireland, priority 2015, dated 2021).

Experiments:
[1] = test system: C. albicans strain SC5314 biofilm; assay: XTT metabolic assay of C. albicans biofilm; assay type: cell-based, Candida albicans; conditions: for XTT result, Mean (MeOH control = 1) / Absorbance at 492 nm, Mean (XTT): C. albicans biofilm; for Absorbance at 492 nm, Mean (XTT): test compound 100 μM, 24 hr, MeOH control 0.647, untreated 0.851; for effectiveness against fungal biofilms formed by Candida albicans (in words): summary statement
Experimental: C. albicans strain SC5314 was sub-cultured from 15% (v/v) glycerol stocks at −80° C. onto Yeast Peptone Dextrose (YPD) medium [1% (w/v) yeast extract, 2% (w/v) peptone and 2% (w/v) dextrose] and incubated at 30° C. overnight.
The test compounds in desiccated form were re-suspended in Methanol to create a 10 mM stock. […]
The ability of some of the compounds detailed in example 1 to disrupt Candida albicans was tested using Confocal Scanning Laser Microscopy and an XTT Metabolic Assay. The XTT assay is a commonly used quantitative method assessing Candida biofilm mass and growth often in response to novel drug therapies.
C. albicans biofilm formation was carried out in 96 well plates by a method of the prior art. Briefly, C. albicans was inoculated into Yeast Nitrogen Base [10% (w/v)] and glucose/maltose [10% (w/v)] and incubated overnight at 30° C. Seeding densities for all subsequent experiments (N=3) were OD600=0.05. Cells were grown in Yeast Nitrogen Base supplemented with 1 M Phosphate buffer and acetyl-D-glucosamine (YNB-NP) along with appropriate volumes of test compound to provide the desired concentration. Cells were cultured in 96 well plates for 1 hr at 37° C. to facilitate yeast attachment. After this incubation, the supernatants were aspirated, the wells washed twice with YNB-NP media, and fresh media with the same concentration of test compound added to the appropriate wells. The plate was incubated for 24 hr at 37° C. The next day, the cultures were aspirated and the wells washed once with YNB-NP media.
C. albicans biofilm quantification was carried out in 96 well plates using a semi-quantitative Tetrazolium salt, 2,3-bis-(2-methoxy-4-nitro-5-sulfophenyl)-2H tetrazolium-5-carboxanilide inner salt (XTT) reduction assay (Hawser, Tunney et al, Antimicrob Agents Chemother. 2004 May; 48(5):1879-81). XTT (0.01 g) was dissolved in sterile water (20 ml) and filter sterilized. 10 μl of Menadione dissolved in Acetone was added to the XTT solution, just before use. The XTT-Menadione Solution (100 μl) was added to each well. The plate was incubated in the dark at 37° C. for up to 2 hr to allow for colour development. The OD492 nm was recorded for each well. Experiments were repeated at least three times, with at least eight technical replicates.
Experiments were first carried out using the test compound at concentration of 100 μM.

[2] = test system: IB3 lung epithelial cells; assay: LDH release cytotoxicity, IB3-1 cells; assay type: cell-based; conditions: 100 μM, 16 hr, percentage of 0.1% Triton (100% cytotoxicity), MeOH 3.844
Experimental: (§1) Lactate dehydrogenase (LDH) release from IB3 lung epithelial cells was assayed as a measure of cytotoxicity using an LDH colorimetric kit (Roche) according to manufacturers' instructions. Briefly, IB3-1 cells were seeded onto 96 well plates and treated with methanol (control) and test compounds (100 μM). Following 16 hr incubation at 37° C. and 5% CO2, supernatants were removed and added to catalyst reaction mixture in a fresh plate and further incubated at 37° C. and 5% CO2 for 30 mins to allow for colour development. After this period, the plate was analysed on an ELISA plate reader at OD490 nm. Cytotoxicity was expressed as a percentage of cells treated with 0.1% (v/v) Triton (100% cytotoxicity).

[3] = test system: mammalian cells; assay: Cytotoxicity towards mammalian cells (summary statement); assay type: cell-based
Experimental: as §1, with “cytotoxicity). The results are detailed in table 3:” for “cytotoxicity).”
The above experiments were repeated, testing some compounds against further cell lines (A549, DU145 and HeLa).

[4] = test system: Pseudomonus aeruginosa; assay: Virulence of Pseudomonas aeruginosa (summary statement); assay type: cell-based; conditions: unlike HHQ and PQS
Experimental: The virulence of compounds B1, B2, C2, C3, C4, C5, C6, C8 and C11 towards P. aeruginosa was assessed using the following method:
P. aeruginosa strains were cultured as described above for 24 hr, with the addition of test compounds (10 μM). Cultures were centrifuged at 4000 rpm for 10 minutes and the cell free supernatant (5 ml) removed. Chloroform (3 ml) was added, and mixed by vortex. After centrifugation at 4000 rpm for 5 mins, the lower aqueous phase was transferred to 0.2 M HCl (2 ml). Samples were mixed by vortex and centrifuged at 4000 rpm for 5 mins to separate the phases. An aliquot of the top phase (1 ml) was removed and spectrophotmetrically analysed at OD570 nm. Phenazine production was calculated using the following formula: OD570 nm×2×17.072 and the units expressed in μg/ml. […]

| SMILES | XTT result, Mean (MeOH control = 1) ([1]; 10 μM) | XTT result, Mean (MeOH control = 1) ([1]; 50 μM) | XTT result, Mean (MeOH control = 1) ([1]; 100 μM) | Absorbance at 492 nm, Mean (XTT) [1] | effectiveness against fungal biofilms formed by Candida albicans (in words) [1] | % Cytotoxicity, Mean (LDH release) [2] | cytotoxicity towards mammalian cells (in words) [3] | effect on virulence of Pseudomonus aeruginosa (in words) [4] |
| --- | --- | --- | --- | --- | --- | --- | --- | --- |
| CCCCCCCc1nc2ccccc2c(=O)n1N [Compound C2] | 0.68 | 0.38 | 0.25 | 0.178 | effective | 28.94% | reduced cytotoxicity | do not increase the virulence |
| CCCCCCCc1cc(=O)c2cc(Cl)ccc2[nH]1 [Compound C4] | 0.86 | 0.67 | 0.58 | 0.302 | effective | 15.46% | reduced cytotoxicity | do not increase the virulence |
| CCCCCCCc1cc(=O)c2cccc(Cl)c2[nH]1 [Compound C5] |  |  |  | 0.242 | effective | 31.04% | reduced cytotoxicity | do not increase the virulence |
